This is an account of results in patent publication US20130089562A1, “METHODS OF TREATING LIVER CONDITIONS USING NOTCH2 ANTAGONISTS” (priority 2011, published 2013).

Molecules are shown by their SMILES.

For test [1], the system named is primary oval cells (liver progenitor cells). Put plainly: Colony formation and proliferation of primary oval cell cultures on Sw-3T3 feeder fibroblasts. The class given is cell-based, mouse. As to the method: To identify the signals that regulate hepatocyte differentiation from liver progenitor cells, transcriptional profiling was performed on adult liver progenitors (oval cells) from mice fed a choline deficient, ethionine supplemented (CDE) diet (FIG. 1A; FIG. 5A). This CDE model is known in the art as a model of chronic liver disease. CDE is also a steatohepatitis model (NASH). Chronic CDE can also lead to hepatocellular carcinoma (HCC), thereby also serving as a model for HCC. To induce an oval cell response, 8-12 week-old female C57BL/6N mice (Charles River) were fed a choline deficient diet (20% Lard; Teklad TD.04523) supplemented with 0.15% (w/v) Ethionine in the drinking water (Akhurst et al., Hepatology 34(3):519 (2001)). Liver non-parenchymal cells were isolated according to the protocol of del Castillo (del Castillo et al., Am. J. Pathol., 172(5):1238 (2008)) with the addition of 0.04% Hyaluronidase (Sigma) to the in vitro dissociation step.
To elucidate the role of Notch signaling in liver regeneration, an in vitro culture system was developed. Cell cultures were established by culturing primary oval cells on Sw-3T3 fibroblasts (ATCC), arrested with Mitomycin C (Sigma), in High Glucose Dulbecco's Modified Eagle Medium (DMEM; Invitrogen) supplemented with 15% Fetal Calf Serum (Sigma), non-essential amino acids (Invitrogen), Glutamax (Invitrogen), and ITS (Invitrogen).

Test [2] deals with Notch2 intracellular domain (ICD). Put plainly: Notch2 signaling in cultured oval cells (Western blot for γ-secretase cleaved Notch2 ICD; Hes1 expression). The class given is cell-based, mouse. Particulars: FIG. 2H. From the text: The anti-activated Notch2 antibody (clone 40-2-7) was generated against the peptide VIMAKRKRKHGSLW, corresponding to amino acids 1697-1710 of the human Notch2 protein sequence (SEQ ID NO:73), coupled to KLH (YenZym Custom Antibodies, LLC). Splenocytes from a rabbit producing an antibody with the appropriate specificity were used to generate hybridomas (Epitomics, Inc.). Clone 40-2-7 was identified by screening the resulting rabbit monoclonal antibodies by immunoblotting and immunohistochemistry. This antibody recognizes both human (FIG. 7B, left panel) and mouse (FIG. 7B, right panel) active Notch2 at endogenous levels.
Progenitors cultured in the culture system maintained growth (FIG. 2A) and formed colonies consisting of small, tightly packed cells with a high nuclear-cytoplasmic ratio and a distinct raised edge (FIG. 2A, left panel). The cells within these colonies were uniformly EpCAM positive (FIG. 2A, right panel). […] Activated Notch2 was detected by Western blot analysis using a rabbit monoclonal antibody raised against the S3 cleaved form of the human Notch2 protein (FIG. 7B). […]
Notch2 signaling was active in cultured oval cells, as transcriptionally active Notch2 intracellular domain (ICD) could be detected using an antibody specific to the γ-secretase cleaved form of this receptor (FIG. 2H). […]
In general terms: A western blot detects proteins with antibodies after separation by electrophoresis.

`C[C@H](NC(=O)Cc1cc(F)cc(F)c1)C(=O)N[C@H](C(=O)OC(C)(C)C)c1ccccc1` [DAPT, N—[N-(3,5-difluorophenacetyl)-1-alanyl]-S-phenylglycine t-butyl ester]: the progenitor cell proliferation result in test [1] (FIG. 2D) is “small increase”. Further, in test [1] (primary cultures treated with DAPT, FIG. 2B), the “enhancement of colony formation” value is reported as “approximately ten-fold”. In addition, in test [2], the “appearance of γ-secretase cleaved (active) form of Notch2” value is given as “absent”.
